In PubChem BioAssay (NCI):
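Where inhibition never reached the appropriate level, the endpoint shown equals the highest concentration tested. Otherwise, values were interpolated linearly from a five-concentration, 48-hour dose response in 96-well plates. GI50 marks 50% less growth. Definition used: TGI = concentration required for complete inhibition of growth.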

Key:
Test in all cases: inhibition of tumour cell growth, NCI panel, 48 h; in the data active = GI50 below about 0.43 µM; inactive = the rest
[1] = test system: 786-0 renal
[2] = test system: A498 renal
[3] = test system: A549 NSCLC
[4] = test system: ACHN renal
[5] = test system: BT-549 breast
[6] = test system: CAKI-1 renal
[7] = test system: CCRF-CEM leukemia
[8] = test system: COLO 205 colon
[9] = test system: DU-145 prostate
[10] = test system: EKVX NSCLC
[11] = test system: HCC-2998 colon
[12] = test system: HCT-116 colon
[13] = test system: HCT-15 colon
[14] = test system: HL-60(TB) leukemia
[15] = test system: HOP-62 NSCLC
[16] = test system: HOP-92 NSCLC
[17] = test system: HS 578T breast
[18] = test system: HT29 colon
[19] = test system: IGROV1 ovarian
[20] = test system: K-562 leukemia
[21] = test system: KM12 colon
[22] = test system: LOX IMVI melanoma
[23] = test system: M14 melanoma
[24] = test system: MALME-3M melanoma
[25] = test system: MCF7 breast
[26] = test system: MDA-MB-231 breast
[27] = test system: MDA-MB-435
[28] = test system: MOLT-4 leukemia
[29] = test system: NCI-H226 lung
[30] = test system: NCI-H23 lung
[31] = test system: NCI-H460 lung
[32] = test system: NCI-H522 lung
[33] = test system: NCI/ADR-RES ovarian
[34] = test system: OVCAR-3 ovarian
[35] = test system: OVCAR-4 ovarian
[36] = test system: OVCAR-5 ovarian
[37] = test system: OVCAR-8 ovarian
[38] = test system: PC-3 prostate
[39] = test system: RPMI-8226 leukemia
[40] = test system: RXF 393 renal
[41] = test system: SF-268 CNS
[42] = test system: SF-295 CNS
[43] = test system: SF-539 CNS
[44] = test system: SK-MEL-2 melanoma
[45] = test system: SK-MEL-28 melanoma
[46] = test system: SK-MEL-5 melanoma
[47] = test system: SK-OV-3 ovarian
[48] = test system: SN12C renal
[49] = test system: SNB-19 CNS
[50] = test system: SNB-75 CNS
[51] = test system: SR leukemia
[52] = test system: SW-620 colon
[53] = test system: T-47D breast
[54] = test system: TK-10 renal
[55] = test system: U251 CNS
[56] = test system: UACC-257 melanoma
[57] = test system: UACC-62 melanoma
[58] = test system: UO-31 renal
[59] = test system: MDA-N

N#C[C@@H]1C(n2ccc(N)nc2=O)O[C@H](CO)[C@H]1O (stereo partly specified)
> 100 µM: TGI [1] | TGI [2] | TGI [3] | TGI [4] | TGI [5] | TGI [6] | TGI [7] | TGI [8] | TGI [9] | TGI [10] | TGI [11] | TGI [12] | TGI [13] | TGI [14] | TGI [15] | TGI [16] | TGI [17] | TGI [18] | TGI [19] | TGI [20] | TGI [21] | TGI [22] | TGI [23] | TGI [24] | TGI [25] | TGI [26] | TGI [27] | TGI [28] | TGI [29] | TGI [30] | TGI [31] | TGI [32] | TGI [33] | TGI [34] | TGI [35] | TGI [36] | TGI [37] | TGI [38] | TGI [39] | TGI [40] | TGI [41] | TGI [42] | TGI [43] | TGI [44] | TGI [45] | TGI [46] | TGI [47] | TGI [48] | TGI [49] | TGI [50] | TGI [51] | TGI [52] | TGI [53] | TGI [54] | TGI [55] | TGI [56] | TGI [57]
> 83.4 µM: TGI [58]
active: GI50 [7] 0.135 µM | GI50 [28] 0.107 µM
inactive: GI50 [1] 13.2 µM | GI50 [2] > 100 µM | GI50 [3] 6.16 µM | GI50 [4] 1.47 µM | GI50 [5] > 100 µM | GI50 [6] 3.49 µM | GI50 [8] 8.79 µM | GI50 [9] 5.02 µM | GI50 [10] > 100 µM | GI50 [11] > 100 µM | GI50 [12] 2.66 µM | GI50 [13] > 100 µM | GI50 [14] 29.4 µM | GI50 [15] 3.97 µM | GI50 [16] 7.66 µM | GI50 [17] > 100 µM | GI50 [18] > 85 µM | GI50 [19] > 100 µM | GI50 [20] 19.6 µM | GI50 [21] > 100 µM | GI50 [22] 11.4 µM | GI50 [23] 2.97 µM | GI50 [24] > 55.4 µM | GI50 [25] 0.993 µM | GI50 [26] > 100 µM | GI50 [27] > 73 µM | GI50 [29] > 57 µM | GI50 [30] 4.51 µM | GI50 [31] 0.693 µM | GI50 [32] 4.24 µM | GI50 [33] 12.9 µM | GI50 [34] > 100 µM | GI50 [35] > 100 µM | GI50 [36] > 75.2 µM | GI50 [37] 6 µM | GI50 [38] 97.4 µM | GI50 [39] > 100 µM | GI50 [40] > 100 µM | GI50 [41] 22.3 µM | GI50 [42] > 100 µM | GI50 [43] > 100 µM | GI50 [44] > 100 µM | GI50 [45] 64.2 µM | GI50 [46] 38.3 µM | GI50 [47] 39.6 µM | GI50 [48] 9.69 µM | GI50 [49] 10.3 µM | GI50 [50] > 100 µM | GI50 [51] 7.31 µM | GI50 [52] 53.6 µM | GI50 [53] > 100 µM | GI50 [54] > 100 µM | GI50 [55] 42.7 µM | GI50 [56] > 93.3 µM | GI50 [57] 28 µM | GI50 [58] 6.18 µM

COC(=O)[C@@]12CCCC(=O)[C@@H]1[C@H]1CCCC[C@H]12
> 100 µM: TGI [1] | TGI [3] | TGI [4] | TGI [5] | TGI [6] | TGI [7] | TGI [8] | TGI [9] | TGI [10] | TGI [11] | TGI [12] | TGI [13] | TGI [15] | TGI [16] | TGI [18] | TGI [19] | TGI [20] | TGI [21] | TGI [22] | TGI [23] | TGI [24] | TGI [25] | TGI [26] | TGI [27] | TGI [59] | TGI [28] | TGI [29] | TGI [30] | TGI [31] | TGI [32] | TGI [33] | TGI [34] | TGI [35] | TGI [36] | TGI [37] | TGI [38] | TGI [39] | TGI [40] | TGI [41] | TGI [42] | TGI [43] | TGI [44] | TGI [45] | TGI [46] | TGI [47] | TGI [48] | TGI [49] | TGI [50] | TGI [51] | TGI [52] | TGI [54] | TGI [55] | TGI [56] | TGI [57] | TGI [58]
